Test results from patent US9307765B2, “Selective weed control using D-napropamide” (UPL Limited, priority 2013, dated 2016).
“And” between values parts separate entries of the source, which are not always exact repeats. Identical values can stand only once.

Tests used:
Assay type in all cases: in vivo
Ranunculus repens = assay: Field trial on strawberries, pre-emergence, visual % control
Experimental: (§1) Field trials were conducted on various moncotyledonous weeds and dicotyledonous weeds and the effect of D-isomer of Napropamide was studied to understand the selective and effective control of dicotyledonous weeds over monocotyledonous weeds. The effect of D-isomer of Napropamide in comparison to racemic napropramide and untreated was studied, which is concluded hereinbelow:
(§2) Several small plot replicated trials were carried out to evaluate and/or compare the efficacy of D-Napropamide against a range of indicated annual broadleaved and grass weed species in the indicated crops. No problems were encountered during mixing or application of any of the product formulations or tank mixtures under test.
(§3) In each of the reported data, the homogeneity of variance was tested by Bartlett's test. Wherever this test indicated no homogeneity of variance, the transformed values were used for analysis of variance. Assessment data was then analyzed using a two-way analysis of variance (ANOVA) on untransformed and transformed data. The probability of no significant differences occurring between treatment means was calculated as the F probability value (p(F)). A mean comparison test was only performed and reported when the treatment of F that was calculated during analysis of variance was significant at the observed significance level specified for the mean comparison test. Where the data was transformed, treatment means in the reports were presented in their detransformed state, with the appropriate letter test and mean descriptions (LSD and standard deviation) derived from the transformed ANOVA.
Trial was carried out on strawberries to evaluate the efficacy and selectivity of D-Napropamide and equivalent rate of Devrinol (Napropramide) applied pre-emergence. […] The percentage control of D-isomer of Napropamide and Devrinol was assessed in comparison to the untreated after 224 days after application.

Aperaspica-venti = assay: Field trial in winter oilseed rape, pre-emergence, % control
Experimental: as §1, §2, §3
(§4) Trials were conducted to evaluate the selectivity and efficacy of D-isomer of Napropamide when applied pre-emergence to oilseed rape crop. The % control of weed was assessed at regular intervals.

Cirsium arvense = assay: as above
Experimental: as §1, §2, §3, §4

Fallopia convolvulus = assay: as above
Experimental: as §1, §2, §3, §4

Senecio vulgaris = assay: as above
Experimental: as §1, §2, §3, §4

Triticum aestivum = assay: as above
Experimental: as §1, §2, §3, §4

Veronica persica = assay: as above
Experimental: as §1, §2, §3, §4

Matricaria sp. = assay: Field trial in winter oilseed rape, pre-emergence, % control and ground cover
Experimental: as §1, §2, §3, §4

Digitaria sanguinalis = assay: Plot trial, % control of Digitaria sanguinalis
Experimental: as §1, §2
as §3, with “ANOVA. […]” for “ANOVA.”

[1] = 450 g/L @ 1.6 L/Ha, listed as D Napropamide

CCN(CC)C(=O)[C@@H](C)Oc1cccc2ccccc12 [D-Napropamide, D-(−)-N,N-diethyl-2-(α-naphthoxy)propionamide]
Percentage Control at 224 DAA (Ranunculus repens; 3.0 L/Ha of 450 g/L formulation): 66.7%
Percentage Control at 224 DAA (Ranunculus repens; 4.2 L/Ha of 450 g/L formulation): 100%
Percentage Control at 224 DAA (Ranunculus repens; 8.5 L/Ha of 450 g/L formulation): 100%
Conclusion: efficacy in control vis-à-vis Napropamide at an equivalent dosage (Ranunculus repens; Ranunculus repens): surprising efficacy
Percentage Control at 63 DAA (Aperaspica-venti; 450 g/L @ 1.4 L/Ha): 35.00%
Percentage Control at 63 DAA (Aperaspica-venti; 450 g/L @ 1.6 L/Ha): 58.75%
Percentage Control at 63 DAA (Aperaspica-venti; [1]): 52.50%
Conclusion: efficacy in control vis-à-vis Napropamide at an equivalent dosage (Aperaspica-venti; Aperaspica-venti, monocot): poor efficacy
Percentage Control at 51 DAA (Cirsium arvense; 450 g/L @ 1.6 L/Ha): 100.00%
Conclusion: control of the weed at equivalent dosage (Cirsium arvense; Cirsium arvense, dicot): superior control
Percentage Control at 63 DAA (Fallopia convolvulus; 450 g/L @ 1.6 L/Ha): 100.00%
Percentage Control at 63 DAA (Fallopia convolvulus; 450 g/L @ 2.0 L/Ha): 100.00%
Conclusion: efficacy in control vis-à-vis Napropamide at an equivalent dosage (Fallopia convolvulus; Fallopia convolvulus, dicot): superior efficacy
Percentage Control at 214 DAA (Senecio vulgaris; [1]): 82.15% and 94.72%
Conclusion: efficacy in control vis-à-vis Napropamide at an equivalent dosage (Senecio vulgaris; Senecio vulgaris, dicot): superior efficacy
Percentage Control at 51 DAA (Triticum aestivum; 450 g/L @ 1.4 L/Ha): 0.00%
Percentage Control at 72 DAA (Triticum aestivum; 450 g/L @ 1.4 L/Ha): 0.00%
Percentage Control at 51 DAA (Triticum aestivum; 450 g/L @ 1.6 L/Ha): 0.00%
Percentage Control at 72 DAA (Triticum aestivum; 450 g/L @ 1.6 L/Ha): 0.00%
Percentage Control at 51 DAA (Triticum aestivum; 450 g/L @ 1.8 L/Ha): 0.00%
Percentage Control at 72 DAA (Triticum aestivum; 450 g/L @ 1.8 L/Ha): 0.00%
Percentage Control at 51 DAA (Triticum aestivum; 450 g/L @ 2.0 L/Ha): 0.00%
Percentage Control at 72 DAA (Triticum aestivum; 450 g/L @ 2.0 L/Ha): 0.00%
Conclusion: control of the weed (Triticum aestivum; Triticum aestivum, monocot): negligible control
Percentage Control at 63 DAA (Veronica persica; 450 g/L @ 1.4 L/Ha): 100.00%
Percentage Control at 63 DAA (Veronica persica; 450 g/L @ 1.6 L/Ha): 100.00%
Conclusion: efficacy in control vis-à-vis Napropamide at an equivalent dosage (Veronica persica; Veronica persica, dicot): superior efficacy
Percentage ground cover %, value in brackets (untreated 0.0%) (Matricaria sp.; 450 g/L @ 2.0 L/Ha): (99.3%)
Percentage Control at 49 DAA (Matricaria sp.; 450 g/L @ 2.0 L/Ha, oilseed rape): 97.00%
Percentage ground cover % (Matricaria sp.; 450 g/L @ 2.0 L/Ha, untreated 4.50): 0.30%
Conclusion: efficacy in control vis-à-vis Napropamide at an equivalent dosage (Matricaria sp.; Matricaria sp., dicot, oilseed rape): superior efficacy
% Control (Digitaria sanguinalis; 3 L/Ha of 450 g/L formulation, 16 DAA): 7.50%
% Control (Digitaria sanguinalis; 3 L/Ha of 450 g/L formulation, 33 DAA): 8.75%
% Control (Digitaria sanguinalis; 4.5 L/Ha of 450 g/L formulation, 16 DAA): 10.00%
% Control (Digitaria sanguinalis; 4.5 L/Ha of 450 g/L formulation, 33 DAA): 10.00%
% Control (Digitaria sanguinalis; 6 L/Ha of 450 g/L formulation, 16 DAA): 10.00%
% Control (Digitaria sanguinalis; 6 L/Ha of 450 g/L formulation, 33 DAA): 12.50%
% Control (Digitaria sanguinalis; 7.5 L/Ha of 450 g/L formulation, 16 DAA): 10.00%
% Control (Digitaria sanguinalis; 7.5 L/Ha of 450 g/L formulation, 33 DAA): 11.25%
% Control (Digitaria sanguinalis; 9 L/Ha of 450 g/L formulation, 16 DAA): 10.00%
% Control (Digitaria sanguinalis; 9 L/Ha of 450 g/L formulation, 33 DAA): 18.75%
Conclusion: efficacy in comparison to Napropamide in the control of monocotyledonous weeds (Digitaria sanguinalis; Digitaria sanguinalis): only as efficacious or less
